Data from US20040208864A1, “Methods of improving health-related quality of life in individuals with systemic lupus erythematosus” (priority 2002, published 2004).
Entries after “also recorded” stand apart in the source; their conditions may differ. Where two headings read alike, the source gives them in different places.

Legend:
anti-dsDNA antibodies [1] = assay: Anti-dsDNA antibody levels (Farr assay), Phase II/III study; format: in vivo, human; settings: for Frequency of patients with sustained reductions in anti-dsDNA antibodies compared with placebo: Phase II/III (90-05), sustained = at least 10% below baseline for at least 2/3 of values
Experimental: (§1) Two studies (Phase II/III or 90-05, and Phase III or 90-09) were conducted as described in Examples 1-2 and 12. […] Patients completed the SF-36® assessment at entry, followed by three additional time points in the trial depending on how long they participated. […] The Phase II/III trial enrolled 198 lupus patients with high-affinity antibodies who were treated for up to 18 months.
(§2) Patients selection, duration of treatment, assay type were in these studies are further detailed in Table 5. All laboratory values were determined at a central laboratory. Baseline anti-dsDNA antibody levels were calculated as the mean of the last 2 determinations prior to initial administration of the study drug. Baseline values for all other laboratory measures were determined immediately before administration of the study drug. The upper limit of normal for the anti-dsDNA antibody assay at the central laboratory was 5 IU/ml.
(§3) (Sustained reduction of 10% was based on the percent coefficient of variation of the Farr assay as reported in the assay labeling. At least ⅔ of observations were required to meet this criterion to assure the majority of values were represented for a patient.) All anti-dsDNA antibody values collected were used to determine if a patient met the criterion for sustained reduction. Anti-dsDNA antibody values subsequent to HDCC were considered treatment failures and these values were imputed to have a value equivalent to baseline.

SLE patients [2] = assay: SF-36 health-related quality of life, Phase III (90-09) trial of LJP 394 vs placebo; format: in vivo, human; settings: for Longitudinal differences in HRQOL (SF-36 domain scores) drug-treated vs placebo-treated: various time points, all patients
Experimental: Patients were treated with weekly doses of 100 mg of LJP 394 or with placebo. Patients were also permitted to receive certain other treatments including some but not all immunosuppressive drugs using a definition similar to Example 2. This randomized, double-blind, placebo-controlled study was conducted at more than 70 major medical centers in North America and Europe. Patients could remain in the study for up to 92 weeks.
The prospectively defined analysis groups were the intent-to-treat population and patients with impaired renal function. The intent-to-treat population was defined as patients with high-affinity antibodies to LJP 394. The patients with high-affinity antibodies to LJP 394 were those with a Kd′<0.8 mg/ml. Patients with impaired renal function were defined as having a serum creatinine level of 1.5 mg/dL to 3.5 mg/dL at baseline. In general, patients with impaired renal function are at greater risk of progressing to renal flare, kidney failure, and dialysis.
Complement changes were evaluated by determining the mean change from baseline in the complement protein C3 that indicates overall complement consumption due to active inflammation. Antibody changes were evaluated by determining the mean percent change of antibodies to dsDNA from baseline. Patients' assessments of disease activity and health-related quality of life were measured on a regular basis as well as at the time of, and 30 days following, a documented renal flare.
as §1
As described above in the detailed description of the invention, HRQOL is an assessment of a patient's sense of physical and mental well-being or how they feel. In the Phase II/III and Phase III studies, HRQOL was measured by a standard scoring instrument called the Medical Outcomes Study 36-Item Short Form (SF-36′). The SF-36® Health Survey is a standardized tool used in clinical research to measure a patient's assessment of quality of life outcomes related to disease and disease treatment. The Survey asked 36 questions related to how well a patient can perform day-to-day activities and how they feel emotionally. The answers were then reported as scores in eight domains. These domains are physical functioning, role-physical, bodily pain, general health, vitality, social functioning, role-emotional and mental health. SF-36@ was measured in both Phase III and II/III.

SLE patients [3] = assay: Documented renal flares, Phase II/III study; format: in vivo, human
Experimental: The primary endpoint was the time to a documented renal flare, defined as reproducible increases from baseline in 24-hr proteinuria or serum creatinine >20% or at least 0.3 mg/dL, whichever was greater, accompanied by proteinuria, hematuria and/or red cell casts; or new onset or reproducible increase in hematuria accompanied by either an increase in 24-hr proteinuria or new red cell casts. Secondary outcome measures included the number of renal flares, time to institution of therapy with high dose corticosteroids (HDCC) and/or cyclophosphamide, incidence of treatment with HDCC and/or cyclophosphamide, and number of major SLE flares. HDCC was defined as an increase in oral, intravenous or intramuscular prednisone (or prednisone equivalent) greater than or equal to 15 mg per day from baseline to a dose greater than 20 mg per day for more than two days or any dose exceeding 200 mg in a single day. Topical, intra-articular, intra-lesional, or intra-ocular corticosteroid administration was excluded.
(§4) The incidences of renal flares in patients of both sustained reduction group and the other group were documented and the results are shown in Table 7 for Phase III and Table 8 for Phase II/III.

anti-dsDNA [4] = settings: murine models of SLE; cited from earlier work
B cells [5] = settings: mice; cited from earlier work
anti-dsDNA [6] = settings: patients with SLE; cited from earlier work
SLE patients [7] = assay: Documented renal flares, Phase III study; format: in vivo, human
Experimental: The primary endpoint was time to renal flare. A renal flare was defined as a significant, reproducible increase in serum creatinine, urine protein or blood in the urine as described in Example 2. The secondary endpoint was time to treatment with HDCC. HDCC was defined as any dose of cyclophosphamide or an increase in prednisone of 15 mg/day or higher resulting in a final dose greater than 20 mg/day.
as §4

anti-dsDNA antibodies [8] = assay: Anti-dsDNA antibody levels (Farr assay), Phase III study; format: in vivo, human; settings: for Frequency of patients with sustained reductions in anti-dsDNA antibodies compared with placebo: Phase III (90-09), sustained = at least 10% below baseline for at least 2/3 of values
Experimental: as §1, §2, §3

B cells [9] = settings: rats; cited from earlier work

abetimus sodium (sense GTGTGTGTGTGTGTGTGTGT; antisense CACACACACACACACACACA; sense: DNA, backbone not given here; antisense: DNA, backbone and methylation of C not given here; four deoxynucleotide duplexes bound to triethylene glycol valency platform) [LJP 394, tetravalent conjugate: four (CA)10.(TG)10 double-stranded 20-mer oligonucleotides on a triethylene glycol based valency platform]
# Patients with sustained reduction (anti-dsDNA antibodies [1]; Phase II/III): 54
# Patients, Other (no sustained reduction) (anti-dsDNA antibodies [1]; Phase II/III): 38
Frequency of patients with sustained reductions in anti-dsDNA antibodies compared with placebo (anti-dsDNA antibodies [1]): higher frequency; also recorded: more frequent
Frequency of patients with sustained reductions in anti-dsDNA antibodies compared with placebo (anti-dsDNA antibodies [1]; listed as LJP394): Four times as many
Change in anti-dsDNA antibodies from baseline compared with placebo (anti-dsDNA antibodies [1]; Phase II/III, p<0.0001): statistically significant decrease
Mean SF-36 domain scores after renal flare compared with placebo (SLE patients [2]; after renal flare): remained better than placebo patients; also recorded: remained better than placebo patients'
Mean SF-36 domain scores before renal flare compared with placebo (SLE patients [2]; before renal flare): improved HRQOL scores before the renal flare compared with placebo; also recorded: higher for LJP394 treated patients in all domains
SF-36 domain score changes pre/post renal flare compared with placebo (SLE patients [2]; pre vs post renal flare): seven of eight domains; also recorded: better HRQOL compared with Placebo patients in all domains except physical functioning
Longitudinal differences in HRQOL (SF-36 domain scores) drug-treated vs placebo-treated (SLE patients [2]): not significantly different
Longitudinal differences in HRQOL (SF-36 domain scores) drug-treated vs placebo-treated (SLE patients [2]; listed as Riquent™): No substantive differences
# Renal flares in Other patients (SLE patients [3]; Phase II/III): 6
# Renal flares in patients with sustained reduction (SLE patients [3]; Phase II/III): 1
Time to and number of renal flares compared with placebo (SLE patients [3]; high affinity population): significant reduction
Time to renal flare between treatment groups (SLE patients [3]; intent-to-treat population, interim analysis): unlikely to reach statistical significance
Effect on anti-dsDNA titers (anti-dsDNA [4]): selectively reduces anti-dsDNA titers
Induction of antigen-specific B-cell tolerance (B cells [5]): induce antigen-specific B-cell tolerance
Effect on anti-dsDNA titers (anti-dsDNA [6]): selectively reduces anti-dsDNA titers
# Renal flares in Other patients (SLE patients [7]): 14
# Renal flares in patients with sustained reduction (SLE patients [7]): 3
# Patients with sustained reduction (anti-dsDNA antibodies [8]; Phase III): 80
# Patients, Other (no sustained reduction) (anti-dsDNA antibodies [8]; Phase III): 65
Frequency of patients with sustained reductions in anti-dsDNA antibodies compared with placebo (anti-dsDNA antibodies [8]): higher frequency; also recorded: Four times as many; also recorded: Twice as many; also recorded: more frequent
Frequency of patients with sustained reductions in anti-dsDNA antibodies compared with placebo (anti-dsDNA antibodies [8]; listed as LJP394): Twice as many
Change in anti-dsDNA antibodies from baseline compared with placebo (anti-dsDNA antibodies [8]; Phase III, p<0.0001): statistically significant decrease
Induction of antigen-specific B-cell tolerance (B cells [9]): induce antigen-specific B-cell tolerance
